From US6514517B2, “Antimicrobial coatings for medical devices” (Ethicon, Inc., priority 2001, dated 2003) come the findings set out here.

The test system of this test is Staphylococcus aureus ATCC33591. Kind of test: Kirby-Bauer type test, coated suture sections on seeded agar plates. Type of test: cell-based. The procedure: In order to further evaluate the in-vitro potential for pH-lowering coatings, a study was carried out with Staphylococcus aureus ATCC33591. A series of coatings was prepared by dissolving 2.5, 5, 10 and 20 percent (w/w) of L(−)-lactide, respectively, in ethyl acetate. A second series of coatings was prepared by dissolving 2.5, 5, 10 and 20 percent (w/w) of L(−)-lactide in combination with 9 percent (w/w) polyoxaester, respectively, in ethyl acetate.
The polyoxaester coating copolymer used was a poly(ethylene 3,6,9-trioxaundecanedioate-seg-caprolactone-co-glycolide) resin comprised of approximately 17 weight percent polyoxaester prepolymer and a 83 weight percent polymerized mixture of approximately 91 mole percent ε-caprolactone and 9 mole percent glycolide. The polyoxaester is a polycondensation product of 3,6,9-trioxaundecanedioic acid and ethylene glycol made to have hydroxyl functionalities at both ends of each chain. The final resin is made through a ring opening polymerization of the ε-caprolactone and glycolide mixture using the polyoxaester as an α,ω-dihydroxy-macroinitiator. The inherent viscosity of the coating copolymer was 0.55 dL/g as determined in hexafluoroisopropanol (HFIP) at 25° C. at a concentration of 0.1 g/dL.
A third series of coatings was prepared by dissolving 2.5, 5, 10 and 20 percent (w/w) of glycolide, respectively, in ethyl acetate. A fourth series of coatings was prepared by dissolving 2.5, 5, 10 and 20 percent (w/w) of glycolide in combination with 9 percent (w/w) polyoxaester coating copolymer, respectively, in ethyl acetate. Approximately one-inch sections of commercial size 2/0 synthetic absorbable braided [10/90 poly(lactide-co-glycolide)] suture were dipped into the solutions and were dried overnight in a laminar flow hood, thereby providing a coated suture according to the present invention. In a Kirby-Bauer type test, plates were seeded with a 24-hour culture of Staph. aureus. The coated suture sections were placed on agar plates and the plates were incubated at 30-35° C. for 24 hours. […] For sutures coated from solutions comprising 2.5 percent and 5 percent lactide, respectively, zones of inhibition extending approximately 1 mm from the coated suture were observed. […] Utilizing a 20 percent lactide coating solution, the zone of inhibition was greater than 1 mm. All other coatings yielded results approximately the same as those obtained from a 10 percent lactide coating solution.
Referring to FIG. 3, a one inch-section of suture 30 coated with a solution of 20 percent by weight lactide in ethyl acetate was placed on a seeded agar plate and incubated as above. […] Referring to FIG. 2, when a section of untreated suture 20 is placed on a seeded agar plate and incubated as above, microorganisms 22 are present immediate and adjacent to the untreated suture and no zone of inhibition is noted around the suture.

Setting [1] is: 2/0 braided 10/90 poly(lactide-co-glycolide) suture coated from 2.5 percent solution in ethyl acetate, 30-35° C., 24 hours.
The mark [2] stands for this setting: 2/0 braided 10/90 poly(lactide-co-glycolide) suture coated from 5 percent solution in ethyl acetate, 30-35° C., 24 hours.
Where [3] appears, read: 2/0 braided 10/90 poly(lactide-co-glycolide) suture coated from 10 percent solution in ethyl acetate, 30-35° C., 24 hours.

`C[C@@H]1OC(=O)[C@H](C)OC1=O` [L(−)-lactide]: the “zones of inhibition extending from the coated suture” value runs as follows: under setting [1], “approximately 1 mm”; under setting [2], “approximately 1 mm”; under setting [3], “approximately 1 mm”. Besides, the “zone of inhibition extending from the coated suture” value (2/0 braided 10/90 poly(lactide-co-glycolide) suture coated from 20 percent solution in ethyl acetate, 30-35° C., 24 hours) is “greater than 1 mm”. Besides, the “zone of inhibition (FIG. 3, in words)” value (one inch-section of suture coated with 20 percent by weight solution in ethyl acetate) is listed as “Zone of inhibition 34 clearly surrounds coated suture 30”.

Consider `O=C1COC(=O)CO1` [glycolide], for which the “zones of inhibition extending from the coated suture” value is reported as “less than 1 mm” under setting [1], “less than 1 mm” under setting [2] and “approximately 1 mm” under setting [3].
